From ChEMBL document CHEMBL1201862, “PubChem BioAssay data set” (2004)
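Method: 48-hour compound exposure of cells in 96-well plates, five concentrations, linear interpolation of endpoints. GI50 marks 50% less growth.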 Active and inactive are the calls of the source. Rule as the data show it: active = GI50 up to about 1.1 µM and inactive = higher.

How the values were obtained:
Assay in all cases: NCI-60 cell line screen, 48 h
[1] = tested on: RPMI-8226
[2] = tested on: DLD-1
[3] = tested on: COLO 205
[4] = tested on: SNB-78
[5] = tested on: TK-10
[6] = tested on: HT-29
[7] = tested on: LXFL 529
[8] = tested on: DMS-273
[9] = tested on: OVCAR-4
[10] = tested on: HCT-116
[11] = tested on: OVCAR-8
[12] = tested on: KM12
[13] = tested on: Malme-3M
[14] = tested on: XF498
[15] = tested on: NCI/ADR-RES
[16] = tested on: SK-MEL-5

Compound | GI50 [1] | GI50 [2] | GI50 [3] | GI50 [4] | GI50 [5] | GI50 [6] | GI50 [7] | GI50 [8] | GI50 [9] | GI50 [10] | GI50 [11] | GI50 [12] | GI50 [13] | GI50 [14] | GI50 [15] | GI50 [16]
CC1=NC=C(O)c2ccccc2O1 | > 100 µM (inactive) | > 100 µM (inactive) | > 100 µM (inactive) | > 100 µM (inactive) | > 100 µM (inactive) | > 100 µM (inactive) | > 100 µM (inactive) | > 100 µM (inactive) | > 100 µM (inactive) | > 100 µM (inactive) | > 100 µM (inactive) | > 100 µM (inactive) | > 100 µM (inactive) |  |  | 
COC1=C2CC(C)CC(OC)C(O)C(C)/C=C(\C)C(OC(N)=O)C(OC)/C=C\C=C(/C)C(=O)NC(=C(/C=N/C(C)(C)C)C1=O)C2=O (stereo not drawn) | 0.946 µM (active) | 6.05 µM (inactive) | 1.31 µM (inactive) | 13.9 µM (inactive) |  | 3.19 µM (inactive) |  | 0.986 µM (active) | 1.71 µM (inactive) | 3.69 µM (inactive) | 5 µM (inactive) | 4.62 µM (inactive) | 1.89 µM (inactive) | 0.767 µM (active) | 5.7 µM (inactive) | 2.79 µM (inactive)
CCN(CC)/[N+]([O-])=N/OC |  |  |  | > 100 µM (inactive) | > 100 µM (inactive) | > 100 µM (inactive) | > 100 µM (inactive) | > 100 µM (inactive) |  | > 100 µM (inactive) | > 100 µM (inactive) | > 100 µM (inactive) |  | > 100 µM (inactive) |  | > 100 µM (inactive)
CCOC(=O)/C=C/c1c(C)[nH]c(=O)[nH]c1=O | > 250 µM (inactive) | > 250 µM (inactive) | > 250 µM (inactive) | > 250 µM (inactive) |  | > 250 µM (inactive) |  | > 176 µM (inactive) | > 158 µM (inactive) | > 250 µM (inactive) | 212 µM (inactive) | > 250 µM (inactive) | > 250 µM (inactive) | > 250 µM (inactive) | > 250 µM (inactive) | > 250 µM (inactive)
C/C(=N\NS(=O)(=O)c1ccccc1)c1ccccc1 | > 100 µM (inactive) | > 100 µM (inactive) | > 100 µM (inactive) | > 100 µM (inactive) |  | > 100 µM (inactive) |  | > 100 µM (inactive) | > 100 µM (inactive) | > 100 µM (inactive) | > 100 µM (inactive) | > 100 µM (inactive) | > 100 µM (inactive) | > 100 µM (inactive) | > 100 µM (inactive) | > 100 µM (inactive)
CC1(C)O[C@@H](C[C@]2(C#N)C[C@H](CCl)OC(C)(C)O2)C[C@@H](C#N)O1 | > 100 µM (inactive) | > 100 µM (inactive) | > 100 µM (inactive) | > 100 µM (inactive) | > 100 µM (inactive) | > 100 µM (inactive) |  | > 100 µM (inactive) | > 100 µM (inactive) | > 100 µM (inactive) | > 100 µM (inactive) | > 100 µM (inactive) | > 100 µM (inactive) | 55.8 µM (inactive) |  | > 100 µM (inactive)
C=C(C)C(=O)O[C@H]1CC2=C[C@@H](C[C@@]3(C)O[C@@H]3[C@H]3OC(=O)C(=C)[C@@H]31)OC2=O [ELEPHANTOPIN] |  | 0.897 µM (active) | 0.885 µM (active) | 2.09 µM (inactive) |  | 2.48 µM (inactive) |  | 2.79 µM (inactive) | 2.61 µM (inactive) | 1.16 µM (inactive) | 0.505 µM (active) | 3.31 µM (inactive) | 2.12 µM (inactive) |  | 1.14 µM (inactive) | 4.29 µM (inactive)
COc1cc(O)c2c(c1)C(=O)c1cc(C)cc(O)c1C2=O [PHYSCION] | > 100 µM (inactive) | > 100 µM (inactive) | > 100 µM (inactive) | > 100 µM (inactive) |  | > 100 µM (inactive) | > 100 µM (inactive) |  | > 100 µM (inactive) | > 100 µM (inactive) | > 100 µM (inactive) | > 100 µM (inactive) | > 100 µM (inactive) |  |  | > 100 µM (inactive)
